In assay [1] the test system is Arabidopsis thaliana plants. As to the kind of experiment: IR thermography of leaf temperature, arabidopsis. Type of assay: in vivo. Conditions: transgenic CsPYL1^5m lines and Col-0, 50 μM, 24 hours after spraying. The protocol: A. thaliana plants were grown in a controlled environment growth chamber at 21°/19°C under 8-hour light/16-hour dark photoperiod at 100 μE m^−2 s^−1. IR thermography images of rosette leaves were acquired with a thermal camera FLIR E95 equipped with a 42° lens, 24 hours after spraying 6-week-old plants with 10 mM MES (pH 5.7) + 0.02% Silwet L-77 plus 50 μM ligand or 0.1% DMSO as a control. Images were processed and quantified with the FLIR tools software. The average temperature of 15 different sections taken from four to six leaves per plant was used for quantification. At least six plants per genotype were analyzed, and the experiments were repeated twice. Statistical analysis was performed using GraphPad Prism 9. T test or ANOVA analysis was carried out to identify statistical significance among datasets.

For assay [2], the system named is MAPKKK18 promoter-LUC reporter. In words: pMAPKKK18-LUC luciferase reporter assay. In kind it is in vivo, Arabidopsis thaliana. Conditions: 100 μM, 6 hours. On the procedure: […]18-LUC seedlings were grown in 24-well plates (25 to 35 seeds per well) filled with 1 ml of liquid MS medium for 7 days. MS medium was replaced with fresh medium supplemented with 100 μM D-luciferin, potassium salt (GoldBio), and the indicated treatments with iSB07, iSB09, or ABA. Seedlings were incubated for 6 hours, and luminescence was recorded with a LAS-3000 imager (Fujifilm) equipped with a charge-coupled device camera using 2-min exposures. Eight-bit images were transformed in rainbow false color and quantified using Fiji. The experiment was repeated at least twice.

Assay [3] has as its system Arabidopsis thaliana CsPYL1^5m plants. In words: Drought resistance experiments. Type of assay: in vivo. Conditions: 50 μM. The protocol: For drought assays under long-day conditions, seeds from WT Col-0 and pAlligator2-35[…] plants were grown in MS medium for 7 days. Then, seedlings were transferred to individual 0.18-liter pots containing equal amount of moisted soil composed of peat, vermiculite, and perlite at 1:0.5:0.5 ratio (v/v). Plants were grown under long-day conditions in a controlled environment growth chamber at 22°C under 16-hour light/8-hour dark photoperiod under well-watered conditions for 3 weeks. Then, watering was withheld for 14 days. […] The first application was performed the same day the watering was withheld, and the second one was performed 7 days later. Watering was restored and survival rate was measured 6 days after […]. Gravimetric analysis of water loss in pots was performed along the experiment. […] Pots were weighted at 7-day intervals. Pictures of the plants were taken at the beginning of the experiment, 26 days after water deprivation and 12 days after […]. Survival rate and foliar leaf area were measured 12 days after […]. For drought experiments, 6 to 10 plants per genotype and treatment were analyzed in each experiment. The experiment was performed twice.

The target of assay [4] is AtPYL5:ΔNHAB1 (Arabidopsis thaliana, UniProt Q9FLB1). As to the kind of experiment: Native red electrophoresis of ligand-induced ternary complex.
Method: Electrophoresis was performed at a constant current of 25 mA for 150 min at 4°C. Proteins were detected in gel by InstantBlue staining, and band quantification was performed using the ImageJ software. To obtain apparent Kd values, the proportion of ternary complex formed (fraction bound) and the ABA or iSB09 free concentration in each lane were calculated and plotted as represented in Fig. 3 (E and F). Then, the dose-response curves were fitted to the classical Hill equation using the GraphPad Prism software.
Assay [5] concerns RAB18/RD29B gene expression. In words: RT-qPCR of RAB18/RD29B expression. Also noted: species or system Arabidopsis thaliana. Conditions: in vivo. On the procedure: RNA was extracted from seedlings using NucleoSpin RNA Plant kit from Machery-Nagel, following the manufacturer’s instructions. Complementary DNA (cDNA) was synthesized from 1 μg of total purified RNA using 30 U of RevertAid Reverse Transcriptase (Thermo Fisher Scientific). Reverse transcription quantitative polymerase chain reaction (RT-qPCR) was performed using PyroTaq EvaGreen qPCR Master Mix 5X from Cultek, which includes EvaGreen Dye and carboxy-X-rhodamine (ROX) as a passive reference dye. The primer pairs used for this analysis were described previously ([42]). qPCR was performed in a QuantStudio 3 (Applied Biosystems). Relative quantification of gene expression data was carried out using the 2^−ΔΔCt or comparative Ct method. Expression levels were normalized using the Ct values obtained for the actin-8 gene. The presence of a single PCR product was further verified by dissociation analysis in all amplifications. The mean and SD of three independent experiments are shown.
(In general: Real-time PCR tracks product formation cycle by cycle.)

Assay [6] concerns Arabidopsis thaliana seedlings. As to the kind of experiment: Root growth assay. In kind it is in vivo. Conditions: 10 μM. On the procedure: Seedlings were grown on vertically oriented Murashige and Skoog (MS) plates for 4 to 5 days. Afterward, seedlings were transferred to MS supplemented with the indicated concentrations of the different ligands and kept on vertical orientation. Ten days later, the plates were scanned on a flatbed scanner to produce image files suitable for quantitative analysis of root growth using the NIH Image software ImageJ. The experiment was performed in triplicate (n = 13 to 16). Statistical comparisons were performed by either pairwise t tests or one-way ANOVA using GraphPad Prism 9.

Assay [7] addresses AtHAB1ΔN with CsPYL1^5m (Citrus sinensis, UniProt A0A067E666, F137I/T135L/T153I/V112L/V168A). In words: PP2C inhibition assay, HAB1 with CsPYL1^5m. In kind it is biochemical, Citrus sinensis (CsPYL1^5m); Arabidopsis thaliana (HAB1). Conditions: IC50 for inhibition of HAB1 (ΔNHAB1) in the presence of CsPYL1^5m, pNPP as substrate. On the procedure: (§1) His-tagged receptors and phosphatases were purified using nickel–nitrilotriacetic acid (Ni-NTA) affinity chromatography. Protein integrity was analyzed by SDS–polyacrylamide gel electrophoresis, followed by InstantBlue staining. Phosphatase activity was measured using p-Nitrophenyl Phosphate (pNPP) (25 mM) as substrate, 10 mM MnCl2,1 μM PP2C, and 2 μM of the indicated receptors. […] Assays were repeated twice. For dose-response experiments, IC50 values were obtained with GraphPad Prism 9 using a nonlinear regression curve fit. Each ligand concentration was tested in triplicate. Phosphatase activity of ABI1 was measured using RRA(phosphoT)VA peptide as a substrate, as described ([27]).

For assay [8], the system named is ABI1 with CsPYL1^5m. Type of assay: biochemical, Citrus sinensis (CsPYL1^5m); Arabidopsis thaliana (ABI1). On the procedure: as §1
Assay [9] deals with T1, ΔNHAB1 with AtPYL5 (Arabidopsis thaliana, UniProt Q9FLB1).
T1 construct: His; made in house
In words: PP2C inhibition assay, HAB1 with AtPYL5. In kind it is biochemical. The settings on record: read-out: inhibition of HAB1. On the procedure: His-tagged receptors and phosphatases were purified using nickel–nitrilotriacetic acid (Ni-NTA) affinity chromatography. Protein integrity was analyzed by SDS–polyacrylamide gel electrophoresis, followed by InstantBlue staining. Phosphatase activity was measured using p-Nitrophenyl Phosphate (pNPP) (25 mM) as substrate, 10 mM MnCl2,1 μM PP2C, and 2 μM of the indicated receptors. Proteins were incubated with the ligands for 10 min at room temperature. pNPP was then added to start the reactions, and the absorbance at 405 nm was monitored for 20 min in a ViktorX5 plate reader. Assays were repeated twice. For dose-response experiments, IC50 values were obtained with GraphPad Prism 9 using a nonlinear regression curve fit. Each ligand concentration was tested in triplicate. Phosphatase activity of ABI1 was measured using RRA(phosphoT)VA peptide as a substrate, as described ([27]).

Structures are written as SMILES.

AtHAB1ΔN with CsPYL1^5m, sequence (A0A067E666 1-209 V112L/T135L/F137I/T153I/V168A): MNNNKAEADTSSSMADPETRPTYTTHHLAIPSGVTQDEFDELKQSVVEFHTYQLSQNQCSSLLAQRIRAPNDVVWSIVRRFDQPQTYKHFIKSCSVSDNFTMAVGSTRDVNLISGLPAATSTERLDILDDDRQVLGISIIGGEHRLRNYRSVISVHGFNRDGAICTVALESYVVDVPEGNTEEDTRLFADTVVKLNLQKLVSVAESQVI
AtHAB1ΔN with CsPYL1^5m, sequence (Q9CAJ0 179-511 partner): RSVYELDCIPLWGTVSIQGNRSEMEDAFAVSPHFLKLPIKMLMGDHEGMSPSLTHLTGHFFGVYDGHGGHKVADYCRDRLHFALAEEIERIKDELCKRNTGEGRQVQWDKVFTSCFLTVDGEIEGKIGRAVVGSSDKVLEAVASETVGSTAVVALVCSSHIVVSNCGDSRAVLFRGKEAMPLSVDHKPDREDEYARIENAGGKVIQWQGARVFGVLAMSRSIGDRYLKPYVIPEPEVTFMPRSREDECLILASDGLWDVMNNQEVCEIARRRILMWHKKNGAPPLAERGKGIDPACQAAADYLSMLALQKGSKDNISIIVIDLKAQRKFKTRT
AtPYL5:ΔNHAB1, sequence (Q9FLB1 whole entry, stated change not applied): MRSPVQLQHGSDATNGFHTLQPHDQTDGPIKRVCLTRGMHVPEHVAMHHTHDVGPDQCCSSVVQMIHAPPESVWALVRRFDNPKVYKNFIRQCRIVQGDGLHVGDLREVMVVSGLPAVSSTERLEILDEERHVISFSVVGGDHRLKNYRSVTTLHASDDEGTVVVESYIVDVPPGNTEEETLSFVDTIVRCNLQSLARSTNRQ
T1 sequence (Q9FLB1 whole entry, stated change not applied): as above

`CCn1c(=O)cc(C)c2cc(CNS(=O)(=O)c3ccccc3)ccc21` [iSB09]: the “leaf temperature by thermal imaging” value in assay [1] was “increased leaf temperature”. Besides, in assay [2], the “induction of LUC relative to 25 μM ABA” value is “approximately twofold higher”. Also, the “drought resistance compared to mock-treated plants” value is “markedly enhanced drought resistance” in [3] (CsPYL1^5m plants, long-day conditions) and “enhanced resistance to drought” in assay [3] (short-day conditions). Besides, the soil water consumption in assay [3] (CsPYL1^5m plants, long-day, 10 days after stopping irrigation) was determined as 40%. For the same compound, the equilibrium dissociation constant (Kd) in [4] was 1200 nM. Also, the “RAB18/RD29B up-regulation in CsPYL1^5m plants relative to WT plants” value in [5] is given as “markedly higher”. Further, the “inhibition of root growth” value in assay [6] (CsPYL1^5m lines) was “marked inhibition”; in [6] (WT plants), “did not significantly inhibit”. In assay [7], the half-inhibitory concentration (IC50) turned out to be 316 nM. The “sensitivity of ABI1 relative to HAB1 to iSB09-mediated CsPYL1^5m-dependent inhibition” value in assay [8] was “fivefold more sensitive”. Moreover, the inhibition at 1 µM in assay [9] was 60 to 70%.

The term Kd denotes a measure of binding affinity in units of concentration. Lower therefore signals a tighter complex. A word on the IC50: it is the point on the concentration scale where inhibition reaches its midpoint. By inhibition is commonly meant how much of the control response was suppressed.

(Values after article PMC10005185, “Structure-guided engineering of a receptor-agonist pair for inducible activation of the ABA adaptive response to drought” (Science Advances, 2023).)
